Data set [1] has as its target T1, hCA XII (Homo sapiens, UniProt O43570).
T1 construct: made in house
The conditions noted are these: cited from earlier work.

The target of data set [2] is T2, hCA IX (Homo sapiens, UniProt Q16790).
T2 construct: made in house
As to conditions: cited from earlier work.

Data set [3] has as its target T3, hCA II (Homo sapiens, UniProt P00918).
T3 construct: made in house
Kind of data set: stopped flow CO2 hydrase assay. The format is biochemical. The conditions noted are these: mean from 3 assays. The procedure: (§1) Carbonic anhydrase inhibition assay
The carbonic anhydrase catalyzed CO2 hydration actions for the quinazoline-based carboxylic acid derivatives (6a-c, 7a-c and 8a-c) were assayed utilizing an instrument of Applied Photophysics stopped-flow, as described previously. The enzymes are recombinant proteins prepared in our lab. Phenol red (at a concentration of 0.2 mM) has been used as indicator, working at the absorbance maximum of 557 nm, with 20 mM Hepes (pH 7.5) as buffer, and 20 mM Na2SO4 (for maintaining constant the ionic strength), following the initial rates of the CA- […]
(§2) 1.7 to 17 mM for the determination of the kinetic parameters and inhibition constants. For each inhibitor at least six traces of the initial 5-10% of the reaction have been used for determining the initial velocity. The uncatalyzed rates were determined in the same manner and subtracted from the total observed rates. Stock solutions of inhibitor (0.1 mM) were prepared in distilled-deionized water and dilutions up to 0.01 nM were done thereafter with the assay buffer. Inhibitor and enzyme solutions were preincubated together for 15 min at room temperature prior to assay, in order to allow for the formation of the E-I complex. The inhibition constants were obtained by non-linear least-squares methods using PRISM 3 and the Cheng-Prusoff equation, and represent the mean from at least three different determinations.

Data set [4] addresses T2, hCA IX. Kind of data set: stopped flow CO2 hydrase assay. The data set is classed as biochemical. As to conditions: for Selectivity ratio II/IX: KI hCA II / KI hCA IX; for Ki: mean from 3 assays. The procedure: as §1
(§3) The carbonic anhydrase catalyzed CO2 hydration actions for the quinazoline-based […]
(§4) Photophysics stopped-flow, as described previously. The enzymes are recombinant proteins prepared in our lab. Phenol red (at a concentration of 0.2 mM) has been used as indicator, working at the absorbance maximum of 557 nm, with 20 mM Hepes (pH 7.5) as buffer, and 20 mM Na2SO4 (for maintaining constant the ionic strength), following the initial rates of the CA- […]
(§5) 1.7 to 17 mM for the determination of the kinetic parameters and inhibition constants. For each […]
as §2, with “initial” for “1.7 to 17 mM for the determination of the kinetic parameters and inhibition constants. For each inhibitor at least six traces of the initial 5-10% of the reaction have been used for determining the initial”

The target of data set [5] is T1, hCA XII. Put plainly: stopped flow CO2 hydrase assay. The format is biochemical. The conditions noted are these: for Selectivity ratio I/XII: KI hCA I / KI hCA XII; for Selectivity ratio II/XII: KI hCA II / KI hCA XII; for Ki: mean from 3 assays. The procedure:
as §1, §3, §4, §5
as §2, with “initial” for “1.7 to 17 mM for the determination of the kinetic parameters and inhibition constants. For each inhibitor at least six traces of the initial 5-10% of the reaction have been used for determining the initial”

Data set [6] deals with T4, hCA I (Homo sapiens, UniProt P00915).
T4 construct: made in house
Kind of data set: stopped flow CO2 hydrase assay. The format is biochemical. The conditions noted are these: mean from 3 assays. The procedure: as §1, §3, §4, §5
as §2, with “initial” for “1.7 to 17 mM for the determination of the kinetic parameters and inhibition constants. For each inhibitor at least six traces of the initial 5-10% of the reaction have been used for determining the initial”

As a reminder, the Ki is the equilibrium dissociation constant of an inhibitor or competing ligand from its target. For orientation: melting point means the temperature of the solid-liquid transition.

Read-outs that look alike come from different tables or passages of the source.

T4 sequence (P00915 whole entry): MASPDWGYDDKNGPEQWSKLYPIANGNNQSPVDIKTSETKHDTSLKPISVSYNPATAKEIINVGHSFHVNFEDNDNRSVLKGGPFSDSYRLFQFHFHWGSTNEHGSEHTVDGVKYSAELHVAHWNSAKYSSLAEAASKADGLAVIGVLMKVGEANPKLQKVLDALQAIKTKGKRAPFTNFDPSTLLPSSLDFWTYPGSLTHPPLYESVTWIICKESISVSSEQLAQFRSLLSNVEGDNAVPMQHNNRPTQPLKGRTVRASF
T1 sequence (O43570 25-354): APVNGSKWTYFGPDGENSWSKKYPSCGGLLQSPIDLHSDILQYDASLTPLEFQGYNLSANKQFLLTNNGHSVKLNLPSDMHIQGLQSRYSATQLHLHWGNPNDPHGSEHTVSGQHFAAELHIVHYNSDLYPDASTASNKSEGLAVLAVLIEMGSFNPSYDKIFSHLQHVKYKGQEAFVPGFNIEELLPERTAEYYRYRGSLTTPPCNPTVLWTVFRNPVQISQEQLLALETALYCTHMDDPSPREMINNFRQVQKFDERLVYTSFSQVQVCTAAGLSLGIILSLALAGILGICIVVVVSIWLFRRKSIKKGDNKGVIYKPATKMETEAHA

Take `O=C(O)c1ccc(N/C=C/C(=O)c2ccc(F)cc2)cc1` [III]: the values for the Ki in data set [1] and in data set [2] were 1.1 µM and 0.92 µM, respectively.

For the molecule `Cc1cccc(-c2nc(Nc3cccc(C(=O)O)c3)c3ccccc3n2)c1` [7a, 3-((2-(m-Tolyl)quinazolin-4-yl)amino)benzoic acid], the Ki is 26 µM in data set [3], 29.3 µM in data set [4], 4.8 µM in data set [5] and above 100 µM in data set [6]. The “Selectivity ratio II/IX” value in data set [4] came to 0.89. Besides, the “Selectivity ratio I/XII” value in data set [5] was 20.8. In data set [5], the “Selectivity ratio II/XII” value was found to be 5.42.

Molecule `COc1ccc(-c2nc(Nc3cccc(C(=O)O)c3)c3ccccc3n2)cc1` [7c, 3-((2–(4-Methoxyphenyl)quinazolin-4-yl)amino)benzoic acid] registered a melting point of 244 to 246 °C. The inhibition constant (Ki) in data set [3] was 85.8 µM. Besides, in data set [4], the “Selectivity ratio II/IX” value is recorded as 2.72 and the inhibition constant (Ki) came out at 31.6 µM. Besides, in data set [5], the “Selectivity ratio II/XII” value came to 178.75 and the inhibitory constant (Ki) worked out at 0.48 µM. In addition, the inhibition constant Ki in data set [6] was above 100 µM.

`COc1ccc(-c2nc(Nc3ccc(C(=O)O)cc3)c3ccccc3n2)cc1` [8c, 4-((2–(4-Methoxyphenyl)quinazolin-4-yl)amino)benzoic acid] displayed a melting point above 300 °C. The molecule also gave an inhibition constant Ki in data set [3] of 4.6 µM. The “Selectivity ratio I/IX” value in data set [4] (KI hCA I / KI hCA IX) was 14.7. For the same molecule, in data set [4], the “Selectivity ratio II/IX” value worked out at 1.02 and the affinity, expressed as Ki, was 4.5 µM. In data set [5], the “Selectivity ratio I/XII” value was found to be 265.2, the “Selectivity ratio II/XII” value was 18.40 and the inhibitory constant (Ki) stood at 0.25 µM. Also, affinity in data set [6] was put at a Ki of 66.3 µM.

Turning to `Cc1c(NC(=O)Nc2cccc(C(=O)O)c2)oc2ccccc12` [I], the inhibitory constant (Ki) in data set [1] was 2.3 µM; in data set [2], 0.79 µM.

Source of the values: article PMC10035947, “Development of novel anilinoquinazoline-based carboxylic acids as non-classical carbonic anhydrase IX and XII inhibitors” (Journal of Enzyme Inhibition and Medicinal Chemistry, 2023).
